Read-outs that look alike come from different tables or passages of the source. Blank lines part the entries; values can stand above or below the molecule they belong to.
How the values were obtained:
β1-AR = biological target: T1, β1-AR (Mus musculus, UniProt P34971); assay: ICI 118,551 competition binding against [125I]cyanopindolol, control heart sarcolemmal membranes, low affinity component
T1 construct: Sarcolemmal membranes were prepared from control mouse hearts; from tissue; host or cells: sarcolemmal membranes of control mouse hearts (A3), and of control and TGβK12 mouse hearts (A4)
Protocol: Myocardial sarcolemmal membranes were prepared by homogenizing whole hearts in ice-cold buffer A [50 mM HEPES (pH 7.3), 150 mM KCl, 5 mM EDTA]. Nuclei and tissue were separated by centrifugation at 800×g for 10 min and the crude supernatant was then centrifuged at 20,000×g for 10 min. The subsequent pellet was resuspended in buffer A and centrifuged at 20,000×g for 10 min. The final pellet was resuspended at a concentration of 2-3 mg protein per ml in buffer B [50 mM HEPES (pH7.3), 5 mM MgCl2].

[1] = system: left ventricular function; assay: LV dP/dtmax before and after systemic β2-AR antagonist; format: in vivo, mouse
Description: FIG. 7. Effect of administering β-AR antagonist. […] Asterisks indicate p<0.05, paired Student's T-test.

adenylyl cyclase = format: biochemical, mouse; conditions: for NaF stimulated cyclase activity, mean (±SD): 10 mM NaF; for EC50: read-out: EC50 of isoproterenol-stimulated adenylyl cyclase activity
Protocol: FIG. 4. Adenylyl Cyclase Activity. Membranes were prepared from TG4 hearts and nontransgenic litter mate control hearts as described in FIG. 2. […] Each point on the graph represents the mean±SEM of seven independent experiments each performed in duplicate.
The inotropic response resulting from myocardial β-AR stimulation is mediated through activation of adenylyl cyclase and the intracellular second messenger cAMP. To assess whether the myocardium of transgenic animals overexpressing β2-AR had enhanced adenylyl cyclase activity, myocardial membranes were incubated with [^32P]ATP and the rate of cAMP formation was measured.

[2] = system: left ventricular function; assay: In vivo assessment of left ventricular function, TG4 and control mice; design: species or system mouse
[3] = system: left ventricular function; assay: In vivo assessment of left ventricular function, TGβK12 and TGMini27 mice; design: species or system mouse; conditions: for mean LV dP/dtmax (maximum contractility): 500 pg isoproterenol; for mean LV dP/dtmin (maximum LV relaxation): 1000 pg isoproterenol
Protocol: FIG. 12. In vivo assessment of left ventricular function of TGβK12 (n=10) and nontransgenic control mice (n=10). Animals were anesthetized and aortic and left ventricular catheters placed (28). […]; (B) LV dP/dtmin; (C) heart rate (HR); and (D) LV systolic pressure. Data are reported as means±SEM and were analyzed with a two way analysis of variance (ANOVA) with post hoc testing performed using Scheffe's F test (*, P<0.05). […]; (B) dP/dtmin, P<0.05; (C) HR, P<0.01 but not (D) LV systolic pressure, P=ns.
FIG. 13. In vivo assessment of left ventricular function of TGMini27 (n=7) and nontransgenic control mice (n=7). Mice were treated as in FIG. 4 (28) and four parameters are shown; (A) LV dP/dtmax,; (B) LV dP/dtmin; (C) HR; and (D) LV systolic pressure. Data are reported as mean±SEM and were analyzed as in FIG. 4 (*, P<0.05). […]; (B) dP/dtmin, P<0.005; and (D) LV systolic pressure, P<0.005.
Mice were anesthetized with a mixture of ketamine and xylazine (Milano et al., Science 264, 582 (1994)). A cervical incision was made, the trachea intubated and the animal connected to a volume-cycled ventilator. A carotid artery was then cannulated with a flamestretched PE 50 catheter connected to a modified P50 statham transducer. […]. Continuous pressures were recorded on an eight channel chart recorder and in digitized form on computer disk for beat averaging. Ten sequential beats were averaged for each measurement.

isolated atria = assay: Isometric tension development in isolated atria; design: species or system mouse; conditions: TG4 atria, doses maximally stimulating controls
Protocol: FIGS. 5A-C. Baseline and maximally stimulated responses in isolated atria. Atria were suspended under optimal resting tension in modified Kreb's bicarbonate solution at 30° C. […]. Data are shown as the mean values±SEM for control animals (n=7 or 8) and TG4 animals (n=5 or 6). In all three responses, the baseline values for the TG4 animals were greater than the baseline in the control animals (* P<0.05 Student's t-test), but not different from either control isoproterenol-stimulated values or from TG4 isoproterenol-stimulated values.
To directly assess the effect of β2-AR overexpression on myocardial inotropy, isometric tension development was determined in isolated, perfused atria. […] In the left atria, basal tension was approximately three times that of the control levels. Baseline isometric tension in the transgenics was not different from the maximal isoproterenol-stimulated tension in control atria. […] To eliminate the possibility that this increased rate might be contributing to the increased tension measured in the transgenic myocardium, experiments were conducted to assess the relationship of rate to developed tension. From a rate of 240 to 360 beats/min. […] All atria studied were weighed, and no significant differences were noted between transgenic and control weights.

Gβγ [4] = assay: cell-based or functional assay
βARK = assay: GRK activity of heart extracts, rhodopsin phosphorylation assay; format: biochemical, mouse; conditions: TGMini27 heart extracts, 50 μg protein, ~10 pmoles Gβγ, n=5
Gβγ [5] = biological target: Gβγ

T1 sequence (P34971 whole entry): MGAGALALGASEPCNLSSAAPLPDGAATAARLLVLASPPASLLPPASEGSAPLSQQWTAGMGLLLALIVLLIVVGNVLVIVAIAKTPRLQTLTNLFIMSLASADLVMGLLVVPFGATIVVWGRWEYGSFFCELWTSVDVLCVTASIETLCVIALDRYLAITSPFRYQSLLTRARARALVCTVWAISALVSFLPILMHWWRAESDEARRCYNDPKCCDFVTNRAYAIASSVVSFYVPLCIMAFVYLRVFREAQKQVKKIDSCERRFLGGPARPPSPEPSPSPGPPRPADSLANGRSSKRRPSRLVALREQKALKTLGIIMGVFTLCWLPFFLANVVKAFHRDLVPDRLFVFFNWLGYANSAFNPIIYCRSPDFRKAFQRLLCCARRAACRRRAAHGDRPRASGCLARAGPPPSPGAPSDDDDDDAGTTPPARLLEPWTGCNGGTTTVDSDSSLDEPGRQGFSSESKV

Ki (β1-AR): 390 nM
effect on the β1-AR binding component (β1-AR; 75 nM ICI 118,551): insignificantly affecting
share of low affinity binding population (β1 subtype) (β1-AR; control mouse heart sarcolemmal membranes): 75%
Molecule: Cc1ccc(OCC(O)C(C)NC(C)C)c2c1CCC2 (stereo not shown) [ICI 118,551]
change in elevated baseline LV dP/dtmax ([1]; TG4 transgenic mice, 5 μg systemic, four minutes after administration): Marked decreases
change in LV dP/dtmax ([1]; control animals): no significant change

Molecule: [F-].[Na+] [NaF]
NaF stimulated cyclase activity, mean (±SD) (adenylyl cyclase; control membranes): 606.4±207.8 pmol cAMP/min/mg protein
NaF stimulated cyclase activity, mean (±SD) (adenylyl cyclase; transgenic (TG4) membranes): 445.5±165.5 pmol cAMP/min/mg protein

Molecule: CC(C)NCC(O)c1ccc(O)c(O)c1 (stereo not shown) [isoproterenol]
change in LV dP/dtmax ([2]; control animals, isoproterenol infusion): progressive increases
effect on blood pressure ([2]; doses greater than 1 nanogram): significant lowering of blood pressure
left ventricular responses to isoproterenol ([3]; TGMini27 mice versus controls): markedly enhanced
mean LV dP/dtmax (maximum contractility) ([3]; TGMini27 mice): 10,821 mm Hg per sec
mean LV dP/dtmin (maximum LV relaxation) ([3]; TGMini27 mice): −8071 mm Hg per second
inotropic and chronotropic responses to isoproterenol ([3]; TGβK12 animals versus controls): significantly reduced
mean LV dP/dtmax (maximum contractility) ([3]; TGβK12 mice): 6457 mm Hg per sec
mean LV dP/dtmin (maximum LV relaxation) ([3]; TGβK12 mice): −4350 mm Hg per second
EC50 (adenylyl cyclase; TG4 heart membranes): 22 nM
EC50 (adenylyl cyclase; nontransgenic control heart membranes): 160 nM
inotropic response of atria (isometric tension) (isolated atria): no further inotropic response

stimulation of rhodopsin phosphorylation upon addition of Gβγ (~10 pmoles), heart extracts from TGMini27 mice (fold over basal) (Gβγ [4]): 2.16
Molecule: βARK1-(495-689) Minigene (from UniProt P21146 495-689)

B1: βARK1-(495-689) Minigene: coding sequence for the last 194 amino acids of bovine βARK1; expressed soluble protein, in vivo βARK inhibitor (protein)
chain: GIKLLDSDQELYRNFPLTISERWQQEVAETVFDTINAETDRLEARKKTKNKQLGHEEDYALGKDCIMHGYMSKMGNPFLTQWQRRYFYLFPNRLEWRGEGEAPQSLLTMEEIQSVEETQIKERKCLLLKIRGGKQFVLQCDSDPELVQWKKELRDAYREAQQLVQRVPKMKNKPRSPVVELSKVPLIQRGSANGL
stimulation of rhodopsin phosphorylation by Gβγ (βARK): 2.16±0.12 fold over basal
baseline LV dP/dtmax, LV dP/dtmin and LV systolic pressure compared to control animals ([3]; TGMini27 mice, baseline): statistically elevated

B2: myocardial βARK (protein)
chain: MADLEAVLADVSYLMAMEKSKATPAARASKKILLPEPSIRSVMQKYLEDRGEVTFEKIFSQKLGYLLFRDFCLNHLEEAKPLVEFYEEIKKYEKLETEEERVVRSREIFDSYIMKELLACSHPFSKNATEHVQGHLVKKQVPPDLFQPYIEEICQNLRGDVFQKFIESDKFTRFCQWKNVELNIHLTMNDFSVHRIIGRGGFGEVYGCRKADTGKMYAMKCLDKKRIKMKQGETLALNERIMLSLVSTGDCPFIVCMSYAFHTPDKLSFILDLMNGGDLHYHLSQHGVFSEADMRFYAAEIILGLEHMHNRFVVYRDLKPANILLDEHGHVRISDLGLACDFSKKRPHASVGTHGYMAPEVLQKGVAYDSSADWFSLGCMLFKLLRGHSPFRQHKTKDKHEIDRMTLTMAVELPDSFSPELRSLLEGLLQRDVNRRLGCLGRGAQEVKESPFFRSLDWQMVFLQKYPPPLIPPRGEVNAADAFDIGSFDEEDTKGIKLLDSDQELYRNFPLTISERWQQEVAETVFDTINAETDRLEARKKAKNKQLGHEEDYALGKDCIVHGYMSKMGNPFLTQWQRRYFYLFPNRLEWRGEGEAPQSLLTMEEIQSVEETQIKERKCLLLKIRGGKQFVLQCDSDPELVQWKKELRDAYREAQQLVQRVPKMKNKPRSPVVELSKVPLIQRGSANGL
stimulation of rhodopsin phosphorylation upon addition of Gβγ (~10 pmoles), control heart extracts (Gβγ [5]): 3.02±0.31 fold over basal, n=5
